Measurements as given in patent publication US20240092758A1, “IMIDAZOLO INDAZOLE COMPOUNDS AS JAK INHIBITORS” (Theravance Biopharma R&D IP, LLC, priority 2021, published 2024).

Assays:
[1] = test system: IL-13 induced STAT6 phosphorylation in BEAS-2B human lung epithelial cells; assay: Cellular JAKI potency assay (BEAS-2B); format: cell-based; conditions: Homo sapiens, BEAS-2B, BEAS-2B cells, read-out: BEAS2B pIC50 (converted)
Protocol: The JAKI cellular potency assay was carried out by measuring inhibition of interleukin-13 (IL-13, R&D Systems) induced STAT6 phosphorylation in BEAS-2B human lung epithelial cells (ATCC). BEAS-2B cells were grown at 37° C. in a 5% CO2 humidified incubator in 50% DMEM/50% F-12 medium (Life Technologies) supplemented with 10% FBS (Hyclone), 100 U/mL penicillin, 100 μg/mL streptomycin (Life Technologies), and 2 mM GlutaMAX (Life Technologies). On day 1 of the assay, cells were seeded at a 7,500 cells/well density in white poly-D-lysine-coated 384-well plates (Corning) with 25 μL medium and were allowed to adhere overnight in the incubator. On day 2 of the assay, the medium was removed and replaced with 12 μL of assay buffer (Hank's Balanced Salt Solution/HBSS, 25 mM HEPES, and 1 mg/ml bovine serum albumin/BSA) containing dose-responses of test compounds. Compounds were serially diluted in DMSO and then diluted another 1000-fold in media to bring the final DMSO concentration to 0.1%. Cells were incubated with test compounds at 37° C. for 1 h and followed by the addition of 12 μl of pre-warmed IL-13 (80 ng/mL in assay buffer) for stimulation. After incubating at 37° C. for 30 min, the assay buffer (containing compound and IL-13) was removed, and 10 μL of cell lysis buffer (25 mM HEPES, 0.1% SDS, 1% NP-40, 5 mM MgCl2, 1.3 mM EDTA, 1 mM EGTA, supplemented with Complete Ultra mini protease inhibitors and PhosSTOP from Roche Diagnostics). The plates were shaken at ambient temperature for 30 min before the addition of detection reagents. Levels of pSTAT6 were measured using the AlphaLISA SureFire Ultra pSTAT6 (Tyr641) assay kit from PerkinElmer. For dose-response analysis, percent inhibition data were plotted vs. compound concentrations, and IC50 values were determined from a 4-parameter robust fit model with the Graphpad Prism software. Results are expressed as the negative logarithm of the IC50 value, pIC50.
Test compounds having a lower IC50 value or higher pIC50 value in this assay show greater inhibition of IL-13 induced STAT6 phosphorylation.

JAK2 = JAK2 (Homo sapiens (Human), UniProt O60674); assay: Biochemical JAK kinase assay (LanthaScreen), JAK2; conditions: for Ki: read-out: JAK2 pKi (converted)
Sequence of JAK2 (O60674 whole entry): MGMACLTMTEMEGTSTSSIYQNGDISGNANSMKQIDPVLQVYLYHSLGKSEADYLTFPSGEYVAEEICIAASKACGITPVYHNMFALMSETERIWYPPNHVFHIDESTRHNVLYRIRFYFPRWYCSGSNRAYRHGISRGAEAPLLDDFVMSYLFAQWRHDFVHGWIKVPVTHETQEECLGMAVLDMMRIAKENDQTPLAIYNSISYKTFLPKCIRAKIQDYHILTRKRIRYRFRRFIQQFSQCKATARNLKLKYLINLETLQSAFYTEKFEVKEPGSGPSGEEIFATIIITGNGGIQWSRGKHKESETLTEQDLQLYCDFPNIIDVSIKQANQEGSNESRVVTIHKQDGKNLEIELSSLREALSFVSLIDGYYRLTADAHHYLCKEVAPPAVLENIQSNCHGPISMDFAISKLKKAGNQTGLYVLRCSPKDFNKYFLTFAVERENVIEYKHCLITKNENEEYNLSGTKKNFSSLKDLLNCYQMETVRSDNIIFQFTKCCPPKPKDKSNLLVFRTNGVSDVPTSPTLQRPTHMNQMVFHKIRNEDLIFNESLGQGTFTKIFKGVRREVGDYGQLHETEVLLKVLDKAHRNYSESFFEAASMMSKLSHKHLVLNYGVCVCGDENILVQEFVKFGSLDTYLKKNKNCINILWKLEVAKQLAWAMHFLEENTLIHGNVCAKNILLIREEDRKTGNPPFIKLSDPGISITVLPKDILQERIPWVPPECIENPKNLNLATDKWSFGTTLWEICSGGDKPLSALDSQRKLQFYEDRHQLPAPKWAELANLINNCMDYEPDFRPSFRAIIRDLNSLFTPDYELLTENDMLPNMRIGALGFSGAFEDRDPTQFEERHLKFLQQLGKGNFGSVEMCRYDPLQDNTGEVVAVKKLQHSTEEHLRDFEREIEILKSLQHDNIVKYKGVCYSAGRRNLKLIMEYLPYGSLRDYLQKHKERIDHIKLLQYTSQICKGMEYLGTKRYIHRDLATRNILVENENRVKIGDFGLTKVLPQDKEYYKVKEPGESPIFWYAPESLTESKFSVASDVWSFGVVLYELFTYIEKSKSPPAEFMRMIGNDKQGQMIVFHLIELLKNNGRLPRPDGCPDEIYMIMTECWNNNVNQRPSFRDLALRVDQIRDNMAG
Protocol: (§1) A panel of four LanthaScreen JAK biochemical assays (JAK1, 2, 3 and Tyk2) were carried in a common kinase reaction buffer (50 mM HEPES, pH 7.5, 0.01% Brij-35, 10 mM MgCl2, and 1 mM EGTA). Recombinant GST-tagged JAK enzymes and a GFP-tagged STAT1 peptide substrate were obtained from Life Technologies.
(§2) Serially diluted compounds were pre-incubated with each of the four JAK enzymes and the substrate in white 384-well microplates (Corning) at ambient temperature for 1 h. ATP was subsequently added to initiate the kinase reactions in 10 μL total volume, with 1% DMSO. The final enzyme concentrations for JAK1, 2, 3 and Tyk2 are 4.2 nM, 0.1 nM, 1 nM, and 0.25 nM respectively; the corresponding Km ATP concentrations used are 25 μM, 3 μM, 1.6 μM, and 10 μM; while the substrate concentration is 200 nM for all four assays. Kinase reactions were allowed to proceed for 1 hour at ambient temperature before a 10 μL preparation of EDTA (10 mM final concentration) and Tb-anti-pSTAT1 (pTyr701) antibody (Life Technologies, 2 nM final concentration) in TR-FRET dilution buffer (Life Technologies) was added. The plates were allowed to incubate at ambient temperature for 1 h before being read on the EnVision reader (Perkin Elmer). Emission ratio signals (520 nm/495 nm) were recorded and utilized to calculate the percent inhibition values based on DMSO and background controls.
(§3) For dose-response analysis, percent inhibition data were plotted vs. compound concentrations, and IC50 values were determined from a 4-parameter robust fit model with the Prism software (GraphPad Software). Results were expressed as pIC50 (negative logarithm of IC50) and subsequently converted to pKi (negative logarithm of dissociation constant, Ki) using the Cheng-Prusoff equation.
(§4) Test compounds having a lower Ki value or higher pKi value in the four JAK assays show greater inhibition of JAK activity.

JAK1 = JAK1 (Homo sapiens (Human), UniProt P23458); assay: Biochemical JAK kinase assay (LanthaScreen), JAK1; conditions: for Ki: read-out: JAK1 pKi (converted)
Sequence of JAK1 (P23458 whole entry): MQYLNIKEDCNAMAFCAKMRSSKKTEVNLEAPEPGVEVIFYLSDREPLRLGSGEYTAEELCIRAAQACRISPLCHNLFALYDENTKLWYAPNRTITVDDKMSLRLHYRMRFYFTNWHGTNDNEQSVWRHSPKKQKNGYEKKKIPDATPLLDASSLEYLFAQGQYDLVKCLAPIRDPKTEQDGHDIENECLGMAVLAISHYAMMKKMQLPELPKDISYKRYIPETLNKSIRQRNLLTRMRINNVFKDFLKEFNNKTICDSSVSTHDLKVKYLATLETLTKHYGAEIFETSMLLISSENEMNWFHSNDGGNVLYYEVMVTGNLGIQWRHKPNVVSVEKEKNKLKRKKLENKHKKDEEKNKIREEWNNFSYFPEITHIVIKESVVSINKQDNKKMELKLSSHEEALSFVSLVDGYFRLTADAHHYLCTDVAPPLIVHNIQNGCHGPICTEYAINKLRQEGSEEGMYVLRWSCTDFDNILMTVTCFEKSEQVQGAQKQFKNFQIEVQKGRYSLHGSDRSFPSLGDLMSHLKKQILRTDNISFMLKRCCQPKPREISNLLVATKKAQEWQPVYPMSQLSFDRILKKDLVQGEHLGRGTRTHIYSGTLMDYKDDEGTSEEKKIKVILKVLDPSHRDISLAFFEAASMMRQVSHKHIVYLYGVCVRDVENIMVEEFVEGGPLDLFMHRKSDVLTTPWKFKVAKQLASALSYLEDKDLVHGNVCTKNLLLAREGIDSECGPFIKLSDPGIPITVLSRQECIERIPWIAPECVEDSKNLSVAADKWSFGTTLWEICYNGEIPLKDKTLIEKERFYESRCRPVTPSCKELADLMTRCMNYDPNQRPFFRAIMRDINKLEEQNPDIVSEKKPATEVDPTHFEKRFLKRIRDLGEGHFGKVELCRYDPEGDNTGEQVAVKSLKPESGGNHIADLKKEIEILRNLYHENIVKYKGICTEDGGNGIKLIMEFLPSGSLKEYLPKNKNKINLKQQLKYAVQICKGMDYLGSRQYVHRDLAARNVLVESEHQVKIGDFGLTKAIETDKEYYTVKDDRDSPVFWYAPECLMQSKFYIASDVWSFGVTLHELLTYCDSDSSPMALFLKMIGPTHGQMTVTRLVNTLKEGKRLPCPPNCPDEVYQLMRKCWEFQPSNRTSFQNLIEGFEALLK
Protocol: as §1, §2, §3, §4

Row | Structure (SMILES) | IC50 [1] | JAK2 pKi (JAK2) | JAK1 pKi (JAK1) | Ki (JAK1) | Ki (JAK2)
1 | CCc1cc(O)ccc1-c1ccc2c(-c3nc(C4=CCN(CC5COC5)C4)c[nH]3)n[nH]c2c1 [Example 71] | 3.16 to 10 nM | A (A represents a pKi value ≥10 (Ki≤0.1 nM)) | A (A represents a pKi value ≥10 (Ki≤0.1 nM)) | – | –
2 | CCc1cc(O)ccc1-c1ccc2c(-c3nc(C4=CCN(C5CCOCC5)C4)c[nH]3)n[nH]c2c1 [Example 72] | 3.16 to 10 nM | A (A represents a pKi value ≥10 (Ki≤0.1 nM)) | A (A represents a pKi value ≥10 (Ki≤0.1 nM)) | – | –
3 | CCc1cc(O)ccc1-c1ccc2c(-c3nc(C4=CCN(C5COC5)C4)c[nH]3)n[nH]c2c1 [Example 73] | 10 to 31.6 nM | A (A represents a pKi value ≥10 (Ki≤0.1 nM)) | – | 0.1 to 1 nM | –
4 | CCc1cc(O)ccc1-c1ccc2c(-c3nc(C4=CCN(CC5COC5)C4)c[nH]3)n[nH]c2c1F [Example 74] | 10 to 31.6 nM | A (A represents a pKi value ≥10 (Ki≤0.1 nM)) | – | 0.1 to 1 nM | –
5 | CCc1cc(O)ccc1-c1ccc2c(-c3nc(C4=CCN(CCSC)CC4)c[nH]3)n[nH]c2c1 [Example 76] | 10 to 31.6 nM | – | – | 0.1 to 1 nM | 0.1 to 1 nM
6 | CCc1cc(O)ccc1-c1ccc2c(-c3nc(C4=CCN(CCS(C)(=O)=O)CC4)c[nH]3)n[nH]c2c1 [Example 77] | 10 to 31.6 nM | A (A represents a pKi value ≥10 (Ki≤0.1 nM)) | – | 0.1 to 1 nM | –
7 | CCc1cc(O)ccc1-c1ccc2c(-c3nc(C4=CCN(CC(=O)NC)CC4)c[nH]3)n[nH]c2c1 [Example 78] | 10 to 31.6 nM | A (A represents a pKi value ≥10 (Ki≤0.1 nM)) | – | 0.1 to 1 nM | –
8 | CCc1cc(O)ccc1-c1ccc2c(-c3nc(C4=CCN(CC(=O)NC(C)(C)C)CC4)c[nH]3)n[nH]c2c1 [Example 79] | 10 to 31.6 nM | – | – | 0.1 to 1 nM | 0.1 to 1 nM
9 | CCc1cc(O)ccc1-c1ccc2c(-c3nc(C4=CCN(CCS(=O)(=O)NC)CC4)c[nH]3)n[nH]c2c1 [Example 80] | 10 to 31.6 nM | A (A represents a pKi value ≥10 (Ki≤0.1 nM)) | – | 0.1 to 1 nM | –
10 | CCc1cc(O)ccc1-c1ccc2c(-c3nc(C4=CCN(CCS(C)(=O)=O)CC4)c[nH]3)n[nH]c2c1F [Example 82] | 10 to 31.6 nM | – | – | 0.1 to 1 nM | 0.1 to 1 nM
11 | CCc1cc(O)ccc1-c1ccc2c(-c3nc(C4=CCN(CC(=O)NC(C)(C)C)CC4)c[nH]3)n[nH]c2c1F [Example 83] | 31.6 to 100 nM | – | – | 1 to 10 nM | 0.1 to 1 nM
12 | CCc1cc(O)ccc1-c1ccc2c(-c3nc(C4=CCN(C5CCNC5=O)CC4)c[nH]3)n[nH]c2c1F (stereo not drawn) [Example 84] | 31.6 to 100 nM | – | – | 0.1 to 1 nM | 0.1 to 1 nM
13 | CCc1cc(O)ccc1-c1ccc2c(-c3nc(C4=CCN(CCS(=O)(=O)NC)CC4)c[nH]3)n[nH]c2c1F [Example 85] | 31.6 to 100 nM | – | – | 0.1 to 1 nM | 0.1 to 1 nM
14 | CCc1cc(O)ccc1-c1ccc2c(-c3nc(C4=CCCN(CCSC)C4)c[nH]3)n[nH]c2c1 [Example 86] | 10 to 31.6 nM | – | – | 0.1 to 1 nM | 0.1 to 1 nM
15 | CCc1cc(O)ccc1-c1ccc2c(-c3nc(C4=CCCN(CCS(C)(=O)=O)C4)c[nH]3)n[nH]c2c1 [Example 87] | 10 to 31.6 nM | A (A represents a pKi value ≥10 (Ki≤0.1 nM)) | – | 0.1 to 1 nM | –
16 | CCc1cc(O)ccc1-c1ccc2c(-c3nc(C4=CCCN(CC(=O)NC)C4)c[nH]3)n[nH]c2c1 [Example 88] | 10 to 31.6 nM | A (A represents a pKi value ≥10 (Ki≤0.1 nM)) | – | 0.1 to 1 nM | –

Row | Structure (SMILES) | IC50 [1] | JAK2 pKi (JAK2) | JAK1 pKi (JAK1) | Ki (JAK1) | Ki (JAK2)
17 | CCc1cc(O)ccc1-c1ccc2c(-c3nc(C4=CCCN(CCS(=O)(=O)NC)C4)c[nH]3)n[nH]c2c1 [Example 89] | 10 to 31.6 nM | A (A represents a pKi value ≥10 (Ki≤0.1 nM)) | – | 0.1 to 1 nM | –
18 | CCc1cc(O)ccc1-c1ccc2c(-c3nc(C4=CCCN(CCS(C)(=O)=O)C4)c[nH]3)n[nH]c2c1F [Example 91] | 10 to 31.6 nM | – | – | 0.1 to 1 nM | 0.1 to 1 nM
19 | CCc1cc(O)ccc1-c1ccc2c(-c3nc(C4=CCCN(CC(=O)NC)C4)c[nH]3)n[nH]c2c1F [Example 92] | 10 to 31.6 nM | – | – | 1 to 10 nM | 0.1 to 1 nM
20 | CCc1cc(O)ccc1-c1ccc2c(-c3nc(C4=CCN(CC(=O)NC)C4)c[nH]3)n[nH]c2c1 [Example 93] | 3.16 to 10 nM | A (A represents a pKi value ≥10 (Ki≤0.1 nM)) | – | 0.1 to 1 nM | –
21 | CCc1cc(O)ccc1-c1ccc2c(-c3nc(C4=CCN(CCC(=O)NC)C4)c[nH]3)n[nH]c2c1 [Example 95] | 10 to 31.6 nM | A (A represents a pKi value ≥10 (Ki≤0.1 nM)) | A (A represents a pKi value ≥10 (Ki≤0.1 nM)) | – | –
22 | CCc1cc(O)ccc1-c1ccc2c(-c3nc(C4=CCN(CCS(=O)(=O)NC)C4)c[nH]3)n[nH]c2c1 [Example 96] | 10 to 31.6 nM | A (A represents a pKi value ≥10 (Ki≤0.1 nM)) | – | 0.1 to 1 nM | –
23 | CCc1cc(O)ccc1-c1ccc2c(-c3nc(C4=CCN(CC(=O)NC)C4)c[nH]3)n[nH]c2c1F [Example 97] | 3.16 to 10 nM | A (A represents a pKi value ≥10 (Ki≤0.1 nM)) | – | 0.1 to 1 nM | –
24 | CCc1cc(O)ccc1-c1ccc2c(-c3nc(C4=CCN(C5CCNC5=O)C4)c[nH]3)n[nH]c2c1F (stereo not drawn) [Example 98] | 31.6 to 100 nM | A (A represents a pKi value ≥10 (Ki≤0.1 nM)) | – | 0.1 to 1 nM | –
25 | CCc1cc(O)ccc1-c1ccc2c(-c3nc(C4=CCN(CCNS(C)(=O)=O)CC4)c[nH]3)n[nH]c2c1 [Example 99] | 10 to 31.6 nM | A (A represents a pKi value ≥10 (Ki≤0.1 nM)) | A (A represents a pKi value ≥10 (Ki≤0.1 nM)) | – | –
26 | CCc1cc(O)ccc1-c1ccc2c(-c3nc(C4=CCN(CCNC(C)=O)CC4)c[nH]3)n[nH]c2c1 [Example 100] | 3.16 to 10 nM | A (A represents a pKi value ≥10 (Ki≤0.1 nM)) | A (A represents a pKi value ≥10 (Ki≤0.1 nM)) | – | –
27 | CCc1cc(O)ccc1-c1ccc2c(-c3nc(C4=CCN(CCNS(=O)(=O)C(C)C)CC4)c[nH]3)n[nH]c2c1 [Example 101] | 10 to 31.6 nM | A (A represents a pKi value ≥10 (Ki≤0.1 nM)) | – | 0.1 to 1 nM | –
28 | CCc1cc(O)ccc1-c1ccc2c(-c3nc(C4=CCN(CCNC(=O)C(C)C)CC4)c[nH]3)n[nH]c2c1 [Example 102] | 3.16 to 10 nM | A (A represents a pKi value ≥10 (Ki≤0.1 nM)) | A (A represents a pKi value ≥10 (Ki≤0.1 nM)) | – | –
29 | CCc1cc(O)ccc1-c1ccc2c(-c3nc(C4=CCN(CCCNS(C)(=O)=O)CC4)c[nH]3)n[nH]c2c1 [Example 103] | 10 to 31.6 nM | A (A represents a pKi value ≥10 (Ki≤0.1 nM)) | A (A represents a pKi value ≥10 (Ki≤0.1 nM)) | – | –
30 | CCc1cc(O)ccc1-c1ccc2c(-c3nc(C4=CCN(CCCNC(C)=O)CC4)c[nH]3)n[nH]c2c1 [Example 104] | 3.16 to 10 nM | A (A represents a pKi value ≥10 (Ki≤0.1 nM)) | A (A represents a pKi value ≥10 (Ki≤0.1 nM)) | – | –
31 | CCc1cc(O)ccc1-c1ccc2c(-c3nc(C4=CCN(CCCNS(=O)(=O)C(C)C)CC4)c[nH]3)n[nH]c2c1 [Example 105] | 10 to 31.6 nM | A (A represents a pKi value ≥10 (Ki≤0.1 nM)) | A (A represents a pKi value ≥10 (Ki≤0.1 nM)) | – | –
